In US12324893B2, “Triptan microporation delivery system” (PassPort Technologies, Inc., priority 2019, dated 2025):
Where two headings read alike, the source gives them in different places.

Assay: Effect of filament density, poration energy and filament array size on PK profile (Examples 7-9)
Set-up: species or system guinea pigs
Conditions: guinea pig, in vivo; for bioavailability: sc, relative bioavailability against SC injection, read-out: Bioavailability ± SE; for AUC / Cmax / Tmax: topical or ocular
Method: This example describes various effects of filament density. To investigate the effect of filament density on PK profile and side effects (pain by poration and skin irritation), these studies were conducted. The filament density mainly affects the area to be utilized for the transfer of body fluid and ingredients in between skin and patch. The range of filament density was 100 filaments/cm^2 to 400 filaments/cm^2, and the poration energy was from 3 to 4 mJ/filament.
This example describes various effects to heating energy. The poration energy is related to the pore shape such as depth and width.
This example describes the selection of a desirable filament array size. Assuming the higher dose than 2 mg dose with the conditions 400 filaments/cm^2 filament density and 4 or 5 mJ/filament energy, filament array size may need to be made bigger. The range of dose was 0.5 to 4 mg, and the range of filament array size was 1.0 to 2.0 cm^2.

[1] = 0.5 mg, Table 17 #1: dose 0.50 mg, 4 mJ/filament, filament array area 1.0 cm^2, 400 filaments/cm^2
[2] = 2 mg, Table 13 # 1: 100 filaments/cm^2, 3 mJ/filament, area 1.0 cm^2, patch 2.00 mg Zolmitriptan
[3] = 2 mg, Table 13 # 2: 200 filaments/cm^2, 3 mJ/filament, area 1.0 cm^2, patch 2.00 mg Zolmitriptan
[4] = 2 mg, Table 13 # 3: 400 filaments/cm^2, 3 mJ/filament, area 1.0 cm^2, patch 2.00 mg Zolmitriptan
[5] = 2 mg, Table 13 # 4: 100 filaments/cm^2, 4 mJ/filament, area 1.0 cm^2, patch 2.00 mg Zolmitriptan
[6] = 2 mg, Table 13 # 5: 200 filaments/cm^2, 4 mJ/filament, area 1.0 cm^2, patch 2.00 mg Zolmitriptan
[7] = 2 mg, Table 13 # 6: 400 filaments/cm^2, 4 mJ/filament, area 1.0 cm^2, patch 2.00 mg Zolmitriptan
[8] = 2 mg, Table 15 # 1: 400 filaments/cm^2, 2 mJ/filament, area 1.0 cm^2, patch 2.00 mg Zolmitriptan
[9] = 2 mg, Table 15 # 2: 400 filaments/cm^2, 3 mJ/filament, area 1.0 cm^2, patch 2.00 mg Zolmitriptan
[10] = 2 mg, Table 15 # 3: 400 filaments/cm^2, 4 mJ/filament, area 1.0 cm^2, patch 2.00 mg Zolmitriptan
[11] = 2 mg, Table 15 # 4: 400 filaments/cm^2, 5 mJ/filament, area 1.0 cm^2, patch 2.00 mg Zolmitriptan
[12] = 2 mg, Table 17 # 2: dose 2.00 mg, 4 mJ/filament, filament array area 1.0 cm^2, 400 filaments/cm^2
[13] = 3 mg, Table 17 # 3: dose 3.00 mg, 4 mJ/filament, filament array area 1.0 cm^2, 400 filaments/cm^2
[14] = 4 mg, Table 17 # 4: dose 4.00 mg, 4 mJ/filament, filament array area 1.5 cm^2, 400 filaments/cm^2
[15] = 4 mg, Table 17 # 5: dose 4.00 mg, 4 mJ/filament, filament array area 2.0 cm^2, 400 filaments/cm^2
[16] = 4 mg, Table 17 # 6: dose 4.00 mg, 5 mJ/filament, filament array area 1.5 cm^2, 400 filaments/cm^2

bioavailability (0.5 mg, Table 17 #1: dose 0.50 mg, 4 mJ/filament, 1.0 cm^2, 400 filaments/cm^2): 70.6 ± 4.5%
bioavailability (2 mg, Table 13 # 1: 100 filaments/cm^2, 3 mJ/filament, 1.0 cm^2, 2.00 mg patch): 11.5 ± 0.6%
bioavailability (2 mg, Table 13 # 2: 200 filaments/cm^2, 3 mJ/filament, 1.0 cm^2, 2.00 mg patch): 73.8 ± 8.6%
bioavailability (2 mg, Table 13 # 3: 400 filaments/cm^2, 3 mJ/filament, 1.0 cm^2, 2.00 mg patch): 85 ± 5.6%
bioavailability (2 mg, Table 13 # 4: 100 filaments/cm^2, 4 mJ/filament, 1.0 cm^2, 2.00 mg patch): 50.3 ± 5.5%
bioavailability (2 mg, Table 13 # 5: 200 filaments/cm^2, 4 mJ/filament, 1.0 cm^2, 2.00 mg patch): 49.9 ± 7.7%
bioavailability (2 mg, Table 13 # 6: 400 filaments/cm^2, 4 mJ/filament, 1.0 cm^2, 2.00 mg patch): 102 ± 13.3%
bioavailability (2 mg, Table 15 # 1: 400 filaments/cm^2, 2 mJ/filament, 1.0 cm^2, 2.00 mg patch): 72.4 ± 10%
bioavailability (2 mg, Table 15 # 2: 400 filaments/cm^2, 3 mJ/filament, 1.0 cm^2, 2.00 mg patch): 85 ± 5.6%
bioavailability (2 mg, Table 15 # 3: 400 filaments/cm^2, 4 mJ/filament, 1.0 cm^2, 2.00 mg patch): 102 ± 13.3%
bioavailability (2 mg, Table 15 # 4: 400 filaments/cm^2, 5 mJ/filament, 1.0 cm^2, 2.00 mg patch): 95.5 ± 5.3%
bioavailability (2 mg, Table 17 # 2: dose 2.00 mg, 4 mJ/filament, 1.0 cm^2, 400 filaments/cm^2): 102 ± 13.3%
bioavailability (3 mg, Table 17 # 3: dose 3.00 mg, 4 mJ/filament, 1.0 cm^2, 400 filaments/cm^2): 76 ± 4.9%
bioavailability (4 mg, Table 17 # 4: dose 4.00 mg, 4 mJ/filament, 1.5 cm^2, 400 filaments/cm^2): 88.9 ± 4.6%
bioavailability (4 mg, Table 17 # 5: dose 4.00 mg, 4 mJ/filament, 2.0 cm^2, 400 filaments/cm^2): 105 ± 7.9%
bioavailability (4 mg, Table 17 # 6: dose 4.00 mg, 5 mJ/filament, 1.5 cm^2, 400 filaments/cm^2): 97.9 ± 12.3%
AUC [1]: 364 ± 23 ng·h/mL
Cmax [1]: 190 ± 34 ng/mL
Tmax [1]: 0.63 ± 0.13 h
AUC [2]: 238 ± 13 ng·h/mL
Cmax [2]: 60 ± 13 ng/mL
Tmax [2]: 2.75 ± 1.25 h
AUC [3]: 1520 ± 177 ng·h/mL
Cmax [3]: 520 ± 51 ng/mL
Tmax [3]: 1.31 ± 0.19 h
AUC [4]: 1750 ± 116 ng·h/mL
Cmax [4]: 487 ± 63 ng/mL
Tmax [4]: 1.63 ± 0.13 h
AUC [5]: 1040 ± 113 ng·h/mL
Cmax [5]: 222 ± 30 ng/mL
Tmax [5]: 2.75 ± 0.72 h
AUC [6]: 1030 ± 159 ng·h/mL
Cmax [6]: 423 ± 30 ng/mL
Tmax [6]: 0.81 ± 0.06 h
AUC [7]: 2100 ± 275 ng·h/mL
Cmax [7]: 896 ± 191 ng/mL
Tmax [7]: 1.06 ± 0.16 h
AUC [8]: 1490 ± 206 ng·h/mL
Cmax [8]: 484 ± 130 ng/mL
Tmax [8]: 2.33 ± 0.83 h
AUC [9]: 1750 ± 116 ng·h/mL
Cmax [9]: 487 ± 63 ng/mL
Tmax [9]: 1.63 ± 0.13 h
AUC [10]: 2100 ± 275 ng·h/mL
Cmax [10]: 896 ± 191 ng/mL
Tmax [10]: 1.06 ± 0.16 h
AUC [11]: 1970 ± 108 ng·h/mL
Cmax [11]: 752 ± 89 ng/mL
Tmax [11]: 1.33 ± 0.33 h
AUC [12]: 2100 ± 275 ng·h/mL
Cmax [12]: 896 ± 191 ng/mL
Tmax [12]: 1.06 ± 0.16 h
AUC [13]: 2350 ± 152 ng·h/mL
Cmax [13]: 756 ± 115 ng/mL
Tmax [13]: 1.63 ± 0.13 h
AUC [14]: 3660 ± 189 ng·h/mL
Cmax [14]: 1310 ± 129 ng/mL
Tmax [14]: 1.33 ± 0.17 h
AUC [15]: 4310 ± 315 ng·h/mL
Cmax [15]: 2200 ± 358 ng/mL
Tmax [15]: 1.25 ± 0.14 h
AUC [16]: 4030 ± 506 ng·h/mL
Cmax [16]: 1710 ± 185 ng/mL
Tmax [16]: 0.75 ± 0.14 h
Structure (SMILES): CN(C)CCc1c[nH]c2ccc(C[C@H]3COC(=O)N3)cc12 [Zolmitriptan]
